A short description of series [1]: Tolerability (body weight, maximum tolerated dose) in ALL-SCID6 xenograft mice. The following applies: same regimen as tumour growth study.
Series [2] deals with BCP-ALL-cell line Tanoue. The series is described as follows: Doxorubicin uptake and efflux, Tanoue. Format: cell-based, human.
The next series relates to U87MG glioblastoma. The series is described as follows: U87MG glioblastoma xenograft tumour growth. The format is in vivo, nude-mice. As to conditions: days 19 to 33.
The subject of series [3] is leukemia cancer cells (Nalm-6), pancreatic cancer cells (Colo357), ovarian cancer cells (A2780). The series can be described thus: Sensitization for etoposide or cisplatin treatment. As to conditions: 0.03 μg/mL etoposide or 0.3 μg/mL cisplatin; D,L-methadone 10, 3, 1 μg/mL; 120 to 144 h. Format: cell-based.
Series [4] relates to caspase-8, -9, -3, PARP, XIAP, Bcl-xL in JIMT-1 cells. The series can be described thus: Western blot of apoptosis effectors in JIMT-1. The following applies: D,L-methadone 10, 3, 1 μg/mL + 0.015 μg/mL doxorubicin; 96 h. Format: cell-based, human.
The subject of series [5] is glioblastoma cell line A172. The series can be described thus: Doxorubicin uptake and efflux, A172. As to conditions: 0.3 μg/mL doxorubicin. Format: cell-based.
Another series has as its system pre-B-ALL-SCID. The series can be described thus: Apoptosis induction in xenograft-derived BCP-ALL cells. The format is cell-based, human. The following applies: therapeutic concentrations of D,L-methadone alone; moderate opioid-receptor level.
Series [6] deals with human T cell leukemia, human acute myeloid leukemia, human B cell precursor leukemia, human B cell leukemia. The series can be described thus: Apoptosis in different leukemia cells, D,L-methadone plus cisplatin. The format is cell-based.
The subject of series [7] is BCP-ALL-cell lines (Tanoue, Reh, Nalm6). The series is described as follows: Apoptosis induction in BCP-ALL-cell lines. Format: cell-based, human. The following applies: D,L-methadone alone; 120 h.
The subject of series [8] is apoptosis pathways in glioblastoma-initiating stem cells. The series is described as follows: Western blot of apoptosis pathways in glioblastoma-initiating stem cells. As to conditions: 3 μg/mL D,L-methadone + 0.1 μg/mL doxorubicin; 144 h. Format: cell-based.
Series [9] in a line: Tolerability (body weight) in U87MG xenograft mice. As to conditions: D,L-methadone 60 to 240 mg/kg/d.
In series [10] the test system is caspases, PARP, XIAP, Bcl-xL in glioblastoma cells A172. The series can be described thus: Western blot of apoptosis effectors in A172. Format: cell-based. In general terms: In western blotting, separated proteins are transferred to a membrane and probed.
For series [11], the system named is BCP-ALL-cell line Tanoue. Format: cell-based, human. As to conditions: for effect on apoptosis rates of combination treatment with D,L-methadone and doxorubicin: 3 μg/mL D,L-methadone + 0.06 μg/mL doxorubicin, 60 μg/mL naloxone, 200 μM IBMX or PTX.
For series [12], the system named is Pancreatic cancer cells Colo 357. The series is described as follows: Cell death in pancreatic cancer cells. The format is cell-based.
The next series has as its system glioblastoma cells A172. The series is described as follows: Apoptosis / cell death in glioblastoma cells A172. Format: cell-based. The following applies: for effect on apoptosis induced by combination treatment with D,L-methadone and doxorubicin: 100 μg/mL naloxone or 25 μM IBMX, 3 μg/mL D,L-methadone, 0.3 μg/mL doxorubicin, 120 h.
Series [13] deals with Trastuzumab resistant breast cancer cells JIMT-1. The series is described as follows: Apoptosis / cell death in JIMT-1 breast cancer cells. The format is cell-based, human.
For series [14], the system named is caspase-2, caspase-9, caspase-3, PARP, XIAP, Bcl-xL in BCP-ALL-cell line Tanoue. The series can be described thus: Western blot analysis of apoptosis effectors in Tanoue. The format is cell-based, human. As to conditions: 60 μg/mL naloxone; 96 h.
A further series relates to glioblastoma cells. The series can be described thus: Apoptosis / cell death in glioblastoma cells (opioid comparison, naloxone). The format is cell-based. The following applies: 60 μg/mL naloxone, 3 μg/mL D,L-methadone, 0.1 μg/mL doxorubicin; 120 h and 144 h.
The subject of series [15] is opioid receptor on promyelocytic leukemia cell line HL60. The series can be described thus: Opioid receptor expression, HL60. The following applies: 0.3 μg/mL cisplatin; 24 h. Format: cell-based, human. As to the method:
(§1) Cells were washed in PBS supplemented with 1% FCS, centrifuged and resuspended in PBS/1% FCS containing naloxone-fluoresceine (0.05 mM, Invitrogen) (Hedin et al., 1997). After 30 min of incubation at RT, the cells were washed twice with PBS/1% FCS, centrifuged and resuspended in icecold PBS/1% FCS. Flowcytometry analysis was performed using FACSCalibur (BD, Heidelberg, Germany).
After staining of cisplatin-treated (+Cisplatin) and untreated cells (−Cisplatin) with naloxone-fluoresceine relative fluorescence intensities were determined flowcytometrically. 2.1-fold increase in opioid receptor expression is shown after subtracting the cells autofluorescence.

Series [16] deals with A2780 ovarian cancer cells. The series can be described thus: Cell death in A2780 ovarian cancer cells. Format: cell-based. As to conditions: 2 μg/mL cisplatin alone; 144 h.
The subject of the next series is ALL-SCID6 xenograft. The series is described as follows: Patient-derived ALL-xenograft tumour growth. Format: in vivo, NOD/SCID/IL2ry null (NSG) mice. As to conditions: D,L-methadone orally day 1-76, 20 up to 120 mg/kg/day; doxorubicin 3 mg/kg i.v. day 46, 53, 60, 76. On the technique in general: In xenograft studies the graft and the host belong to different species.

Series [17] concerns opioid-receptors on BCP-ALL-cell line Tanoue. The series is described as follows: Flow cytometric cell surface opioid-receptor expression, Tanoue. As to conditions: 0.06 μg/mL doxorubicin; 96 h. The format is cell-based, human. How it is done: as §1
(A) Doxorubicin enhances opioid receptor expression on the cells' surface. The BCP-ALL-cell line Tanoue was treated for 96 h with 0.06 μg/mL doxorubicin. After staining of doxorubicin-treated (+Doxo) and untreated cells (−Doxo) with naloxone-fluoresceine relative fluorescence intensities were determined flowcytometrically. X-fold increase in opioid receptor expression is shown after subtracting the cells' autofluorescence (−Doxo) and doxorubicin fluorescence (+Doxo).

The subject of series [18] is opioid receptor on glioblastoma cell line A172. The series is described as follows: Opioid receptor expression, A172. The format is cell-based. The following applies: 0.1 μg/mL doxorubicin; 106 h. As to the method: as §1
(A) The glioblastoma cell line A172 was treated for 106 h with 0.1 μg/mL doxorubicin. After staining of doxorubicin-treated (doxorubicin) and untreated cells with naloxone-fluorescein (naloxone) relative fluorescence intensities were determined flowcytometrically. (B) Tabular summary of untreated and doxorubicin control cells, naloxone treated cells, whereas D(naloxone-control) represents the median fluorescence intensities after subtracting the cells' autofluorescence (control).

Series [19] can be described thus: Serum concentrations in ALL-SCID6 xenograft mice. As to conditions: male, NOD/SCID/IL2ry null (NSG), mouse, in vivo, 3 mg/kg.

Data on 7 compounds can be found in patent publication US11052082B2 (priority 2012, dated 2021).

“Also recorded” adds a separate entry of the source. Where a name gives a salt, the structure may show the parent alone. Peptide text beside a SMILES is read from it. * marks the point of attachment. Cbz = O=C(OCc1ccccc1)*; CH2F = FC*

Regarding `CCC(=O)C(CC(C)N(C)C)(c1ccccc1)c1ccccc1` (racemic) [D,L-methadone, D,L-methadone hydrochloride], the body weight changes in series [1] was −8%. In addition, the doxorubicin efflux result in the series on BCP-ALL-cell line Tanoue [2] (8 h and 24 h after removing doxorubicin) is “reduced the doxorubicin efflux strongly”; in [5], “inhibit the efflux”. Also, the doxorubicin uptake result in the series with BCP-ALL-cell line Tanoue [2] (co-incubation with 0.3 μg/mL doxorubicin, 24 h (0 h)) is given as “enhanced doxorubicin concentration in the cells”; in series [5] (10 μg/mL D,L-methadone), “enhance the uptake”. The “optimum T/C value” with U87MG glioblastoma (D,L-methadone orally daily, 60 to 120 to 240 mg/kg/d bid) is listed as 49%. Moreover, the “tumour size vs vehicle” value in the series with U87MG glioblastoma is on record as “significantly reduced tumour size”. Also, in [3], the “sensitization for etoposide or cisplatin treatment” value is reported as “sensitizes”. Moreover, the caspases activation entry in [4] is “restored deficient caspases activation by doxorubicin”; in series [10] (D,L-methadone 3, 1 μg/mL + 0.1 μg/mL doxorubicin, 144 h) it was “restored deficient caspases activation by doxorubicin”. Also, the cell death induction entry is “only be slightly killed” in the series on pre-B-ALL-SCID, “only be killed slightly” in series [6] (D,L-methadone alone (−CDDP)) and “only be killed slightly” in series [7]. In series [8], the “activation of apoptosis pathways” value was “reversed deficient activation of apoptosis pathways by doxorubicin”. In series [9], this compound registered a body weight loss of 9%.

On to pertussis toxin [PTX], for which, in the series with BCP-ALL-cell line Tanoue [11] (96 h), the “effect on apoptosis rates of combination treatment with D,L-methadone and doxorubicin” value (from here on “effect on apoptosis rates”) is recorded as “strongly reduced the apoptosis rates”.

`CC(C)[C@H](NC(=O)OCc1ccccc1)C(=O)N[C@@H](C)C(=O)N[C@@H](CC(=O)O)C(=O)CF` [zVAD.fmk, benzoylcarbonyl-Val-Ala-Asp-fluoromethylketone] (Cbz-Val-Ala-Asp-CH2F): the “effect on cell death after combination treatment with D,L-methadone and doxorubicin” value with BCP-ALL-cell line Tanoue [11] (50 μM zVAD.fmk pre-incubation, 0.06 μg/mL doxorubicin, 120 h) is listed as “strongly decreased cell death”. For the same compound, the “effect on apoptosis induced by D,L-methadone in addition to cisplatin” value in [12] (50 μmol/L zVAD.fmk, cisplatin 0.7 or 0.5 μg/mL) is reported as “almost completely inhibited apoptosis”. Further, the “effect on apoptosis induced by D,L-methadone in addition to oxaliplatin” value in series [12] (50 μmol/L zVAD.fmk, oxaliplatin 3 or 2 μg/mL) is reported as “almost completely inhibited apoptosis”. For the same compound, the “effect on apoptosis induced by cotreatment of D,L-methadone and doxorubicin” value with glioblastoma cells A172 (50 μmol/L zVAD.fmk, 0.1 μg/mL doxorubicin, 120 h and 144 h) was “blocks apoptosis”; in series [13] (50 μmol/L zVAD.fmk, 0.015 μg/mL doxorubicin, 96 h, 120 h) it was “blocks apoptosis”. Also, the “effect on cell death after combination treatment with D,L-methadone and cisplatin” value in series [6] (zVAD.fmk pre-incubation) is reported as “strongly decreased cell death”.

For the compound `C=CCN1CC[C@]23c4c5ccc(O)c4O[C@H]2C(=O)CC[C@@]3(O)[C@H]1C5` [naloxone], the “effect on caspase activation and PARP cleavage by D,L-methadone in addition to doxorubicin” value in series [14] was “drastically reduced the activation of caspase-9, caspase-2 and caspase-3”. Moreover, in the series with glioblastoma cells, the “effect on apoptosis rates” value was “strongly reduced the apoptosis rates”. The “effect on apoptosis induced by combination treatment with D,L-methadone and doxorubicin” value was “strongly reduced apoptosis” in the series on glioblastoma cells A172 (144 h) and “strongly reduced apoptosis; also recorded: strongly inhibits apoptosis induction” in [13] (100 μg/mL naloxone, 10 μg/mL D,L-methadone, 0.01 μg/mL doxorubicin, 96 h). For the same compound, in series [10] (100 μg/mL naloxone, 120 h), the “effect on activation of caspase-9, caspase-3 and cleavage of PARP by combination treatment” value is on record as “strongly reduced”.

In the case of `CC(C)Cn1c(=O)n(C)c(=O)c2[nH]cnc21` [IBMX, 3-Isobutyl-1-methylxanthine], in the series with BCP-ALL-cell line Tanoue [11] (200 μM IBMX, 0.06 μg/mL doxorubicin, 96 h), the “effect on doxorubicin-induced apoptosis” value is “decreased doxorubicin-induced apoptosis”. Also, in the series on BCP-ALL-cell line Tanoue [11] (96 h), the “effect on apoptosis rates” value is on record as “strongly reduced the apoptosis rates”. In addition, in the series with glioblastoma cells A172 (144 h), the “effect on apoptosis induced by combination treatment with D,L-methadone and doxorubicin” value is on record as “strongly reduced apoptosis induction”.

In the case of `N.N.[Cl][Pt][Cl]` [cisplatin], in [15], the “increase in opioid receptor expression” value turned out to be 2.1 fold. Also, the cell death is listed as 60% in series [12] (10 μg/mL alone, 120 h); 70% in series [12] (10 μg/mL cisplatin alone, 144 h); 90% in [16].

`COc1cccc2c1C(=O)c1c(O)c3c(c(O)c1C2=O)C[C@@](O)(C(=O)CO)C[C@@H]3O[C@H]1C[C@H](N)[C@H](O)[C@H](C)O1` [doxorubicin]: in [1], the body weight changes was −4%. For the same compound, the tumour growth inhibition result in the series on ALL-SCID6 xenograft is given as “significant inhibition of tumour growth”. For the same compound, the opioid-receptor expression entry in series [17] was “strongly increased opioid-receptor expression”. In addition, the cell death in the series on glioblastoma cells A172 (1 μg/mL doxorubicin alone, 144 h) is 80%; in series [13] (0.1 μg/mL doxorubicin alone, 120 h), 70%. Moreover, the “increase in opioid receptor expression” value in series [18] came to 6 fold. Besides, the “serum concentrations of doxorubicin” value in [19] was 156 to 198 ng/mL.
